Entries after “also recorded” stand apart in the source; their conditions may differ. Where two headings read alike, the source gives them in different places.
Tests used:
[1] = biological target: T1, TC-PTP (TCPTP1-317; TCPTP292 in FIG. 12) (Mus musculus, UniProt Q06180); experiment: TC-PTP-catalyzed hydrolysis of pNPP in the presence of terpenoids; format: biochemical, H. sapiens; conditions: TCPTP1-317
T1 construct: His-tag; made in house; host or cells: E. coli BL21 (DE3), pET16b
T1 sequence (Q06180 1-317): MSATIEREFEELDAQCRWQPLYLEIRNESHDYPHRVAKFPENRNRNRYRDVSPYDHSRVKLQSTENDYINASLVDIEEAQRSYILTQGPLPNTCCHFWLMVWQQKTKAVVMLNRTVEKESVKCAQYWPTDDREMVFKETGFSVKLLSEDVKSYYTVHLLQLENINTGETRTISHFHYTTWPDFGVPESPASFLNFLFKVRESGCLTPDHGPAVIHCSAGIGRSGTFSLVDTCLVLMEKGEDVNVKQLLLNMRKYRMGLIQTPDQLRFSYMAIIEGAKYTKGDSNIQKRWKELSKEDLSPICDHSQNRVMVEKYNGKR
Protocol: (§1) Enzyme kinetics. To examine terpenoid-mediated inhibition, we measured PTP-catalyzed hydrolysis of p-nitrophenyl phosphate (pNPP) or 4-methylumbelliferyl phosphate (4-MUP, used when KM for pNPP was large) in the presence of various concentrations of terpenoids. Each reaction included PTP (0.05 μM PTP1B/TCPTP or 0.1 μM SHP1/SHP2 in 50 mM HEPES, 0.5 mM TCEP, 50 μg/ml BSA), pNPP (0.33, 0.67, 2, 5, 10, and 15 mM) or 4-MUP (0.13, 0.27, 0.8, 2.27, 2.93, 4.53, 7.07, and 8 mM), inhibitor (with concentrations listed in the figures), buffer (50 mM HEPES pH=7.3, 50 μg/ml BSA), and DMSO at 10% v/v. We monitored the formation of p-nitrophenol by measuring absorbance at 405 nm every 10 seconds for 5 minutes on a SpectraMax M2 plate reader and the formation of 4-methylumbelliferyl by measuring fluorescence at 450 nm (370 nm ex, 435 nm cutoff, medium gain).
(§2) We used a custom MATLAB script to process all raw kinetic data. This script removed all concentration values that fell outside of either (i) the range of our standard curve (absorbance/fluorescence vs. μM; FIG. 39) or (ii) the initial rate regime (>10% of the pNPP or 4-MUP concentration used in the assay). When this step reduced kinetic dataset to fewer than ten points, we re-measured those datasets to collect at least ten. We fit final datasets, in turn, with a linear regression model (using Matlab's backslash operator).
(§3) We evaluated kinetic models in three steps: (i) We fit initial-rate measurements collected in the absence and presence of inhibitors to Michaelis-Menten and inhibition models, respectively (here, we used the nlinfit and fminsearch functions from MATLAB; TABLE 12). (ii) We used an F-test to compare the mixed model to the single-parameter model with the least sum squared error (here, we used the fedf function from MATLAB to assign p-values), and we accepted the mixed model when p<0.05. (iii) We used the Akaike's Information Criterion (AIC) to compare the best-fit single parameter model to each alternative single parameter model, and we accepted the “best-fit” model when the difference in AIC (Δi) exceed 5 for all comparisons.^78 We note: For AD, AB, and (+) 1-(10),4-cadinadiene this criterion was not met; both noncompetitive and uncompetitive models, however, yielded indistinguishable ICso's.
(§4) We used the MATLAB function “nlparci” to determine the confidence intervals of kinetic parameters, and we propagated those intervals to estimate corresponding confidence intervals for each IC50.

[2] = test system: TC-PTP (TCPTP1-317; TCPTP292 in FIG. 12); experiment: as above; format: biochemical, H. sapiens; conditions: PTP1B321 vs TCPTP292 / TC-PTP, pNPP
Protocol: as §1, §2, §3, §4

PTP1B [3] = biological target: T2, PTP1B (Homo sapiens, UniProt P18031); experiment: Ligand efficiency (TABLE 15); parameters: species or system H. sapiens; conditions: for IC50: PTP1B, the patent's own terpenoid inhibitors
T2 sequence (P18031 1-321 limits assumed): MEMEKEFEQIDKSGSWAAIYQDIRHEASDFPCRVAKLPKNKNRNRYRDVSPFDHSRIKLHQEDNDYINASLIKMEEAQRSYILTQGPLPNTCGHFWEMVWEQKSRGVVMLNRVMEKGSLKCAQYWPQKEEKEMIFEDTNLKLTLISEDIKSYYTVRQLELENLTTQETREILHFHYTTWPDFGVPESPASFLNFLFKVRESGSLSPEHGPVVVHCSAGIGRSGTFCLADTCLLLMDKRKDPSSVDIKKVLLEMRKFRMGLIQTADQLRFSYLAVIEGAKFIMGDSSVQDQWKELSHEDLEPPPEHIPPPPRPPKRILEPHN

PTP1B [4] = biological target: T3, PTP1B (Homo sapiens, UniProt P18031); experiment: X-ray crystallography of PTP1B soaked with ligand; format: binding, H. sapiens
T3 construct: In this study, we used a well-studied truncation variant (i.e., PTP1B1-321); His-tag; made in house; host or cells: E. coli BL21 (DE3), pET21b
T3 sequence (P18031 1-321): T2 sequence (P18031 1-321 limits assumed)
Protocol: X-ray crystallography. We prepared crystals of PTP1B by using hanging drop vapor diffusion. In brief, we added 2 μL of PTP1B (~600 μM PTP1B, 50 mM HEPES, pH 7.3) to 6 μL of crystallization solution (100 mM HEPES, 200 mM magnesium acetate, and 14% polyethylene glycol 8000, pH 7.5) and incubated the resulting droplets over crystallization solution for one week at 4° C. (EasyXtal CrystalSupport, Qiagen). We soaked crystals with ligand by transferring them to droplets formed with 6 μL of crystallization solution and 1 μL of ligand solution (10 mM in DMSO), which we incubated for 2-5 days at 4° C. We prepared all […] for freezing by soaking them in cryoprotectant formed from a 70/30 (v/v) mixture of buffer (100 mM HEPES, 200 mM magnesium acetate, and 25% polyethylene glycol 8000, pH 7.5) and glycerol.
We collected X-ray diffraction data through the Collaborative Crystallography Program at Lawrence Berkeley National Lab (ALS ENABLE, beamline 8.2.1, 100 K, 1.00003 Å). We performed integration, scaling, and merging of X-ray diffraction data using the xia2 software package^79, and we carried out molecular replacement and structure refinement with the PHENIX graphical interface,^80 supplemented with manual model adjustment in COOT^81 and one round of PDB-REDO^82 (the latter, only for the PTP1B-AD complex).

SHP1 = biological target: T4, SHP1 (Homo sapiens, UniProt P29350); experiment: SHP1-catalyzed hydrolysis of 4-MUP in the presence of terpenoids; format: biochemical, H. sapiens
T4 construct: made in house; host or cells: E. coli BL21 (DE3)
T4 sequence (P29350 whole entry): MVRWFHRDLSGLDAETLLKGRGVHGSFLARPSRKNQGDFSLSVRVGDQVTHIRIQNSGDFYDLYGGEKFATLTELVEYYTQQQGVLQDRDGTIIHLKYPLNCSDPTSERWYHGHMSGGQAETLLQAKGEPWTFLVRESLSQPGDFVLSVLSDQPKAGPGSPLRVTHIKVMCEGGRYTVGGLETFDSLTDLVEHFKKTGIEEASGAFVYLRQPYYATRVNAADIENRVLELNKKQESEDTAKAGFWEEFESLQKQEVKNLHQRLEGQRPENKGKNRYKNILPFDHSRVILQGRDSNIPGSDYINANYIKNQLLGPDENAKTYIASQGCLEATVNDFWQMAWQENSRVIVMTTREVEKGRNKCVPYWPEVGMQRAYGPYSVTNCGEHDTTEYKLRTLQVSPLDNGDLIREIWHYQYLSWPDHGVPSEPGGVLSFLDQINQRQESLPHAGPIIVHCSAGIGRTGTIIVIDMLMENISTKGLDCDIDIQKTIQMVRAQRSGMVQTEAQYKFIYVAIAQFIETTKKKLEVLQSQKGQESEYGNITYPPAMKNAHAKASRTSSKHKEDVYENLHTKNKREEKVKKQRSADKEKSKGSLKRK
Protocol: as §1
as §2, with “operator). […]” for “operator).”

[5] = mixed model, uncompetitive constant, read-out: Fit par. Ki,u, mixed model
[6] = noncompetitive model of inhibition, read-out: Fit par. Ki, noncompetitive model
[7] = uncompetitive model of inhibition, read-out: Fit par. Ki, uncompetitive model

SMILES | Ki [1, 5] [µM] | Ki [1, 6] [µM] | Ki [1, 7] [µM] | potency against PTP1B relative to TC-PTP (selectivity from IC50's) [2] | potency against PTP1B relative to TC-PTP (selectivity from IC50's) ([2]; listed as AD) | ligand efficiency (PTP1B [3]; (−2.303RT)/HAC * log(IC50)) [kcal/mol-atom] | IC50 (PTP1B [3]) [µM] | ligand efficiency (PTP1B [3]; TABLE 15) | binding site on PTP1B (crystal structure) (PTP1B [4]; crystal soaked with ligand, pdb entry 6W30) | inhibition of SHP1 (SHP1) | Ki ([1]; mixed model, competitive constant, read-out: Fit par. Ki,c, mixed model) [µM] | potency against PTP1B relative to TC-PTP (selectivity from IC50's) ([2]; listed as AB) | solubility (crystal soaking experiments) (PTP1B [4])
C=C(C)[C@@H]1CC[C@@H](C)[C@@H]2CCC(C)=C[C@@H]21 [amorphadiene] | 356 | 400 | 356 | ~ five-fold; also recorded: much more potently | five- to six-fold | 0.39 | 50 | high | binds to the same allosteric site targeted by benzbromarone derivatives | too weak to measure |  |  | 
CC(C)=CCC=C(C)C1CC=C(C)CC1 (stereo not drawn) [α-bisabolene] | 69.3 | 76.2 | 69.2 | much more potently |  | 0.44 | 13 | high |  | low potency | 3610 | five- to six-fold | poor solubility

Reference: patent US12729458B2, “Discovery and evolution of biologically active metabolites” (The Regents of the University of Colorado, a Body Corporate, priority 2020, dated 2026)
